Experiments:
mouse antibody 1A3 [1] = test: Specificity of mouse antibody 1A3: immunostaining after mixing with compound (Example 5 ii); assay type: binding; settings: Example 5, written in present tense; blending ratio 0.1:0.04:0.03
Procedure: To a highly immunodeficient mouse (NOG mouse), a human-derived tumor is subcutaneously transplanted. After the antibody-drug conjugate according to the present invention is administered, the tumor tissue is taken to prepare paraffin-embedded specimens. Then, stainability of a mouse antibody 1A3 is examined. The tumor tissue is taken from a NOG mouse to which the antibody-drug conjugate according to the present invention is not administered and used as a negative control. Deparaffinization and antigen activation are carried out using Autostainer Link pretreatment system (PT Link, manufactured by DAKO) and an antigen retrieval solution (Target Retrieval Solution Low pH, manufactured by DAKO). The following staining operation is carried out using an automatic staining device (Dako Autostainer Link 48: Manufactured by DAKO). After washing with EnVision FLEX WASH BUFFER (manufactured by DAKO), Peroxidase Block 3% H2O2 (manufactured by DAKO) is add; incubation is carried out; and washing is carried out with EnVision FLEX WASH BUFFER. Protein Block serum free (manufactured by DAKO) is added; incubation s carried out; and liquid is removed by air blow. Mouse antibody 1A3 is diluted with REAL Antibody Diluent (manufactured by DAKO) and reacted. […]

mouse antibody 1A3 [2] = test: Specificity of mouse antibody 1A3: immunostaining after mixing with compound (Example 9 ii); assay type: binding; settings: CDH6-ADC (I) treated NOG mouse tumor; blending ratio 1A3: compound (2): SN-38 0.1:0.04:0.03
Procedure: To a highly immunodeficient mouse (NOG mouse), a human tumor taken from a patient with clear cell renal cell carcinoma was subcutaneously transplanted. After CDH6-ADC (I) was administered, the tumor tissue was taken to prepare paraffin-embedded specimens. Then, stainability of mouse antibody 1A3 was examined. The tumor tissue was taken from an NOG mouse to which CDH6-ADC (I) was not administered and used as a negative control. Deparaffinization and antigen activation were carried out using Autostainer Link pretreatment system (PT Link, manufactured by DAKO) and an antigen retrieval solution (Target Retrieval Solution Low pH, manufactured by DAKO) at 97° C. for 40 minutes. The following staining operation was carried out using an automatic staining device (Dako Autostainer Link 48: manufactured by DAKO) at room temperature. After washing once with EnVision FLEX WASH BUFFER (manufactured by DAKO), Peroxidase Block 3% H2O2 (manufactured by DAKO) was added; incubation was carried out for 5 minutes; and washing was carried out once with EnVision FLEX WASH BUFFER. Protein Block serum free (manufactured by DAKO) was added; incubation was carried out for 30 minutes; and liquid was removed by air blow. Mouse antibody 1A3 was diluted with REAL Antibody Diluent (manufactured by DAKO) to fall in the range of 0.03 μg/mL to 0.3 μg/mL and reaction was made for 60 minutes. […]

topoisomerase I = molecular target: T1, topoisomerase I (Homo sapiens, UniProt P11387); settings: cited from earlier work
T1 sequence (P11387 1-765): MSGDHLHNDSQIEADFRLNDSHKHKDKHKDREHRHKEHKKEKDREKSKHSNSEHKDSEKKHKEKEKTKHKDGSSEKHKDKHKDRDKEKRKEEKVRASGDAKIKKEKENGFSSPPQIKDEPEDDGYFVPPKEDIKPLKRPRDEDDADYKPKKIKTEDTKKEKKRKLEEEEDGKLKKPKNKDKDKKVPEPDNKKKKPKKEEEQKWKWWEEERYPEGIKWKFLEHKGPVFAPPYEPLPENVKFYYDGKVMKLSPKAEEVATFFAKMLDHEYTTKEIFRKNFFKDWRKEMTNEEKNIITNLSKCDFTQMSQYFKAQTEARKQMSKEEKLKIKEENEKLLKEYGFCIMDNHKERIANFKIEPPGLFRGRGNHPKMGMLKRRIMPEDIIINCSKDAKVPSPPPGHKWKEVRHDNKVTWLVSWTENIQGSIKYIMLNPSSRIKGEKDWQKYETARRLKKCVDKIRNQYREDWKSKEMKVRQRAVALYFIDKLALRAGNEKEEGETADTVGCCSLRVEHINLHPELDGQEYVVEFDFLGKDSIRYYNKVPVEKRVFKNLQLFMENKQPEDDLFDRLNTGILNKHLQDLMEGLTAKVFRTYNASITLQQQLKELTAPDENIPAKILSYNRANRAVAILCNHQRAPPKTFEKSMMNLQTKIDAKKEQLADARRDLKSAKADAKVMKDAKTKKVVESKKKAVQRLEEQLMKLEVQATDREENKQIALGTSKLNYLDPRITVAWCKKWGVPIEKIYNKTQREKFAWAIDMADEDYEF

mouse antibody 1A3 [3] = test: Competitive inhibition with HER2-ADC (I), chemical structure recognized by mouse antibody 1A3 (Gyrolab); assay type: binding; settings: compound 1 and 100 μg/mL dilution solutions; response at HER2-ADC (I) 250 ng/mL
Excerpt: The chemical structure to be recognized by mouse antibody 1A3 was checked by competitive inhibition with HER2-ADC (I) using Gyrolab xP workstation (GYROS PROTEIN Technologies). As the compound for use in competitive inhibition, compound (1), compound (2), compound (7), compound (8), compound (9), compound (10), compound (11), Topotecan and Rubitecan were selected.
As the capture reagent, mouse antibody 1A3 labeled with biotin by a labeling kit (ChromaLink Biotin Protein LABELING Kit, Solulink) was used. The concentration thereof was controlled to be 700 nM with 0.1% PS20-containing PBS. The compounds for use in competitive inhibition, compound (1), compound (2), compound (7), compound (8), compound (9), compound (10), compound (11), Topotecan and Rubitecan were separately dissolved in DMSO. The solutions each was diluted with 10% or 20% DMSO in Rexxip HN (GYROS PROTEIN Technologies) to prepare 0, 1 and 100 μg/mL dilution solutions. To each of them, the 700 nM mouse antibody 1A3 solution was added in an equal amount. The mixture was stirred and allowed to react at room temperature in a dark place for one hour or more. The concentration of HER2-ADC (I) was controlled with Rexxip HN to be 0, 0.244, 0.977, 3.91, 15.6, 62.5, 250 and 1000 ng/mL. As the detection reagent, Mouse Anti-(Anti-HER2 Ab) idiotype Ab (13C1) (IBL) was labeled by DyLight650 (registered trademark) labeling kit and put in use. The concentration thereof was controlled with Rexxip F (GYROS PROTEIN Technologies) to be 10 nM. The above solution was set at Gyrolab xP workstation and measurement was carried out by use of Gyrolab Bioaffy 200 at 200-3W-002-A (PMT5). The regression analysis was carried out by use of Gyrolab Evaluator 3.4.0.24 in 4-parametric logistic model (weight: Response). The calibration curve of HER2-ADC (I) was prepared per concentration of the competitive inhibition compound. The inhibition rate (%) was calculated by comparing the response at an HER2-ADC (I) concentration of 250 ng/mL to that of the case where no compound was added (concentration 0 ng/mL).

SMILES	stainability of mouse antibody 1A3 after mixing with the compound (mouse antibody 1A3 [1])	staining ability of mouse antibody 1A3 after mixing with the compound (mouse antibody 1A3 [2])	topoisomerase I inhibitory activity (topoisomerase I)	competitive inhibition of recognition of mouse antibody 1A3 to HER2-ADC (I) (inhibition rate, FIG. 41) (mouse antibody 1A3 [3])
CCc1c2c(nc3ccc(O)cc13)-c1cc3c(c(=O)n1C2)COC(=O)[C@]3(O)CC [SN-38, reference compound]	does not disappear	did not disappear	–	–
CC[C@@]1(O)C(=O)OCc2c1cc1n(c2=O)Cc2c-1nc1cc(F)c(C)c3c1c2[C@@H](NC(=O)CO)CC3 [compound (2)]	disappears	disappeared	topoisomerase I inhibitory effect	strong competitive inhibition

Source: patent US12358999B2, “Protein recognizing drug moiety of antibody-drug conjugate” (DAIICHI SANKYO COMPANY, LIMITED, priority 2018, dated 2025)
